# Results as given in ChEMBL document CHEMBL5724914, “Linking interpersonal differences in gut microbiota composition and drug biotransformation activity” (2024).
# Key:
# [1] = (§1) The drug is tested on Z-030 corresponding to mouse gut metagenome with ENA study accession number: PRJEB37062 and ENA sample accession number: ERS12561829 for biotransformation under anaerobic condition. The drug concentrations were measured over 9 timepoints collected between 0 and 24 hours of incubation by liquid-chromatography-coupled mass spectrometry (LC–MS); conditions: 2 µM
# [2] = as §1, with “Z-029” for “Z-030”, “rat” for “mouse”, “ERS12561828” for “ERS12561829”; conditions: 2 µM
# [3] = as §1, with “Z-012” for “Z-030”, “to” for “to mouse gut”, “ERS12561812” for “ERS12561829”; conditions: 2 µM
# [4] = as §1, with “WLS-090” for “Z-030”, “human” for “mouse”, “ERS12561753” for “ERS12561829”; conditions: 2 µM
# [5] = as §1, with “WLS-039” for “Z-030”, “human” for “mouse”, “ERS12561746” for “ERS12561829”; conditions: 2 µM
# [6] = human gut metagenome, 24 h, 2 µM
# [7] = human gut metagenome, 24 h, 2 µM; remark: listed apart in the source
# [8] = human gut metagenome, 24 h, 2 µM; remark: listed apart in the source
# [9] = human gut metagenome, 24 h, 2 µM; remark: listed apart in the source
# [10] = human gut metagenome, 24 h, 2 µM; remark: listed apart in the source
# [11] = human gut metagenome, 24 h, 2 µM; remark: listed apart in the source
# [12] = human gut metagenome, 24 h, 2 µM; remark: listed apart in the source
# [13] = human gut metagenome, 24 h, 2 µM; remark: listed apart in the source
# [14] = human gut metagenome, 24 h, 2 µM; remark: listed apart in the source
# [15] = human gut metagenome, 24 h, 2 µM; remark: listed apart in the source
# [16] = human gut metagenome, 24 h, 2 µM; remark: listed apart in the source
# [17] = as §1, with “WLS-310” for “Z-030”, “human” for “mouse”, “ERS12561785” for “ERS12561829”; conditions: 2 µM
# [18] = as §1, with “WLS-069” for “Z-030”, “human” for “mouse”, “ERS12561748” for “ERS12561829”; conditions: 2 µM
# [19] = human gut metagenome, 24 h, 2 µM; remark: listed apart in the source
# [20] = as §1, with “Z-019” for “Z-030”, “rat” for “mouse”, “ERS12561818” for “ERS12561829”; conditions: 2 µM
# Note: call rule not given here.
Structure (SMILES),Bacterial Biotransformation [1],Bacterial Biotransformation [2],Bacterial Biotransformation [3],Bacterial Biotransformation [4],Bacterial Biotransformation [5],Bacterial Biotransformation [6],Bacterial Biotransformation [7],Bacterial Biotransformation [8],Bacterial Biotransformation [9],Bacterial Biotransformation [10],Bacterial Biotransformation [11],Bacterial Biotransformation [12],Bacterial Biotransformation [13],Bacterial Biotransformation [14],Bacterial Biotransformation [15],Bacterial Biotransformation [16],Bacterial Biotransformation [17],Bacterial Biotransformation [18],Bacterial Biotransformation [19],Bacterial Biotransformation [20]
CC(C)(C)NC(=O)[C@H]1CC[C@H]2[C@@H]3CC[C@H]4NC(=O)C=C[C@]4(C)[C@H]3CC[C@]12C [FINASTERIDE],Compound NOT metabolized,Compound NOT metabolized,Compound metabolized,Compound metabolized,Compound metabolized,Compound metabolized,Compound metabolized,Compound metabolized,Compound metabolized,Compound NOT metabolized,Compound metabolized,Compound metabolized,Compound metabolized,Compound metabolized,Compound metabolized,Compound metabolized,Compound metabolized,Compound metabolized,Compound metabolized,
CN1[C@@H]2CC[C@H]1C[C@@H](OC(=O)[C@H](CO)c1ccccc1)C2 [HYOSCYAMINE],Compound NOT metabolized,Compound NOT metabolized,Compound NOT metabolized,,,,Compound NOT metabolized,,,Compound NOT metabolized,Compound NOT metabolized,Compound metabolized,,,Compound NOT metabolized,Compound metabolized,Compound metabolized,,Compound NOT metabolized,Compound NOT metabolized
COC1=C(OC)C(=O)C(CCCCCCCCCCO)=C(C)C1=O [IDEBENONE],Compound NOT metabolized,Compound NOT metabolized,Compound metabolized,,Compound metabolized,,,Compound metabolized,Compound metabolized,Compound NOT metabolized,Compound metabolized,Compound metabolized,Compound metabolized,,Compound metabolized,Compound metabolized,Compound metabolized,Compound metabolized,Compound metabolized,Compound NOT metabolized
C#C[C@]1(OC(C)=O)CC[C@H]2[C@@H]3CCC4=CC(=O)CC[C@@H]4[C@H]3CC[C@@]21C [NORETHINDRONE ACETATE],Compound NOT metabolized,Compound metabolized,,,Compound metabolized,Compound metabolized,Compound metabolized,Compound metabolized,,Compound NOT metabolized,Compound metabolized,Compound metabolized,Compound metabolized,Compound metabolized,Compound metabolized,Compound NOT metabolized,,Compound metabolized,Compound metabolized,Compound metabolized
CC(=O)O[C@H]1C(=O)[C@@]2(C)[C@H]([C@H](OC(=O)c3ccccc3)[C@]3(O)C[C@H](OC(=O)[C@H](O)[C@@H](NC(=O)c4ccccc4)c4ccccc4)C(C)=C1C3(C)C)[C@]1(OC(C)=O)CO[C@@H]1C[C@@H]2O [PACLITAXEL],Compound NOT metabolized,Compound NOT metabolized,Compound NOT metabolized,Compound NOT metabolized,Compound metabolized,Compound NOT metabolized,Compound NOT metabolized,Compound NOT metabolized,,Compound NOT metabolized,Compound NOT metabolized,Compound NOT metabolized,Compound NOT metabolized,Compound metabolized,Compound NOT metabolized,Compound NOT metabolized,Compound NOT metabolized,Compound metabolized,Compound metabolized,Compound NOT metabolized
CC(=O)OCC(=O)NCCCOc1cccc(CN2CCCCC2)c1 [ROXATIDINE ACETATE],Compound NOT metabolized,Compound metabolized,Compound metabolized,Compound metabolized,Compound metabolized,Compound metabolized,Compound metabolized,Compound metabolized,Compound metabolized,Compound metabolized,,Compound NOT metabolized,Compound metabolized,Compound metabolized,Compound metabolized,Compound metabolized,Compound metabolized,,Compound metabolized,Compound NOT metabolized
COc1cc2nc(N3CCN(C(=O)C4CCCO4)CC3)nc(N)c2cc1OC (configuration not stated) [TERAZOSIN],Compound NOT metabolized,Compound NOT metabolized,Compound NOT metabolized,Compound metabolized,Compound NOT metabolized,Compound metabolized,Compound NOT metabolized,Compound metabolized,Compound NOT metabolized,Compound NOT metabolized,Compound NOT metabolized,Compound metabolized,Compound NOT metabolized,Compound metabolized,Compound NOT metabolized,Compound NOT metabolized,Compound metabolized,,Compound NOT metabolized,Compound NOT metabolized

# The remaining lines, values ahead:
Bacterial Biotransformation [1],Bacterial Biotransformation [2],Bacterial Biotransformation [3],Bacterial Biotransformation [4],Bacterial Biotransformation [5],Bacterial Biotransformation [6],Bacterial Biotransformation [7],Bacterial Biotransformation [8],Bacterial Biotransformation [9],Bacterial Biotransformation [10],Bacterial Biotransformation [11],Bacterial Biotransformation [12],Bacterial Biotransformation [13],Bacterial Biotransformation [14],Bacterial Biotransformation [15],Bacterial Biotransformation [16],Bacterial Biotransformation [17],Bacterial Biotransformation [18],Bacterial Biotransformation [19],Bacterial Biotransformation [20],Structure (SMILES)
Compound NOT metabolized,Compound NOT metabolized,Compound NOT metabolized,Compound metabolized,Compound metabolized,Compound NOT metabolized,Compound NOT metabolized,Compound NOT metabolized,Compound NOT metabolized,Compound NOT metabolized,Compound NOT metabolized,Compound NOT metabolized,Compound NOT metabolized,Compound NOT metabolized,Compound NOT metabolized,Compound metabolized,,,,,CSc1ccc2c(c1)C(N1CCN(C)CC1)Cc1ccccc1S2.O=C(O)/C=C\C(=O)O (configuration not stated)
Compound NOT metabolized,Compound NOT metabolized,Compound NOT metabolized,Compound NOT metabolized,Compound metabolized,Compound metabolized,Compound metabolized,Compound NOT metabolized,Compound metabolized,Compound NOT metabolized,Compound NOT metabolized,Compound metabolized,Compound NOT metabolized,Compound metabolized,Compound NOT metabolized,Compound metabolized,Compound metabolized,Compound metabolized,Compound NOT metabolized,,CN1CCC[C@@H]1CCO[C@](C)(c1ccccc1)c1ccc(Cl)cc1.O=C(O)/C=C/C(=O)O [CLEMASTINE FUMARATE]
Compound NOT metabolized,Compound NOT metabolized,,Compound NOT metabolized,Compound NOT metabolized,Compound NOT metabolized,Compound NOT metabolized,Compound NOT metabolized,Compound NOT metabolized,Compound NOT metabolized,Compound NOT metabolized,Compound NOT metabolized,Compound NOT metabolized,Compound NOT metabolized,Compound NOT metabolized,Compound NOT metabolized,Compound NOT metabolized,Compound NOT metabolized,Compound NOT metabolized,,CCOC(=O)[C@H](CCc1ccccc1)N[C@@H](C)C(=O)N1CCC[C@H]1C(=O)O.O=C(O)/C=C\C(=O)O [ENALAPRIL MALEATE]
